Read-outs that look alike come from different tables or passages of the source.
Columns and labels:
[1] = tested on: patients with CKD and prediabetes
[2] = tested on: patients with chronic kidney disease (CKD)
[3] = tested on: patients with chronic kidney disease (CKD); remark: listed apart in the source
Experimental: The study population chosen for this study included a broad population of patients with impaired kidney function. The target population had CKD (defined as eGFR ≥25 and ≤75 mL/min/1.73 m^2) with albuminuria (defined as urine albumin creatinine ratio [UACR]≥200 and ≤5000 mg/g) with or without type 2 diabetes (T2D).
Patients included in the study satisfied the following criteria: • Female or male aged ≥18 years at the time of consent. • eGFR ≥25 and ≤75 mL/min/1.73 m^2 (CKD-EPI Formula) at visit 1. • Evidence of increased albuminuria 3 months or more before visit 1 and UACR ≥200 and ≤5000 mg/g at visit 1. • Stable, and for the patient maximum tolerated labelled daily dose, treatment with ACE-I or ARB for at least 4 weeks before visit 1, if not medically contraindicated.
The primary outcome measure was based on the requirements as outlined in the European Medicines Agency (EMA)'s draft guideline, which states that a composite endpoint of ≥50% sustained decline in eGFR, end stage renal disease (ESRD), and renal death (death due to ESRD when dialysis is not given) are acceptable outcome measures (EMA 2016). This endpoint has also been used in a number of previous outcome studies.
The primary variable was the time to first event included in the primary composite endpoint. The primary analysis was based on the intention to treat (ITT) principle using the FAS.

[4] = tested on: patients with heart failure with reduced ejection fraction
[5] = dapagliflozin 10 mg once daily, CKD and prediabetes, median follow-up of 2.4 years
[6] = Dapa 10 mg (N = 2149), on-treatment period per Table 2 footnote
[7] = No diabetes, Dapa 10 mg (N = 696), on- and off-treatment periods
[8] = patients with T2DM, Dapa 10 mg (N = 1453), on- and off-treatment periods
[9] = vs placebo or standard of care CKD agent alone, in words
[10] = vs placebo or standard of care CKD agent alone, in words, listed as Dapagliflozin
[11] = dapa group, DAPA-HF non-T2D patients

With `CCOc1ccc(Cc2cc([C@@H]3O[C@H](CO)[C@@H](O)[C@H](O)[C@H]3O)ccc2Cl)cc1` [dapagliflozin] the “T2D developed in” value [1, 5] was 3.0%, the “T2D developed in (patients/group)” value [1, 5] was 21/697 and the “event rate of newly diagnosed T2D” value ([1]; dapagliflozin 10 mg once daily, median follow-up of 2.4 years) was 1.5 /100-patient years. For the same molecule, the “reduction in T2D incidence” value ([1]; dapagliflozin vs placebo) was 38%, the “SAE: Infections and infestations” value ([2]; Dapa 10 mg (N = 2149), on-treatment period) was 171 (8.0) Number (%) of subjects and the “Any AE with outcome = death” value [2, 6] was 106 (4.9) Number (%) of subjects. For the same molecule, the “Any SAE (including events with outcome = death)” value (“Any SAE” below) [2, 6] was 633 (29.5) Number (%) of subjects, the “Any AE with outcome = death” value [2, 7] was 17 (2.4) Number (%) of subjects and the “Any SAE” value [2, 7] was 150 (21.6) Number (%) of subjects. The “Deaths, SAEs (serious adverse events) and DAEs (discontinuations due to adverse event)” value ([2]; dapagliflozin group compared with placebo group, in words) was “fewer”, the “AEs leading to dose reduction” value ([2]; human, in vivo) was “few but more common” and the “patients reported SAEs, overall” value ([2]; human, in vivo) was “fewer”. For the same molecule, the “Any AE with outcome = death” value [2, 8] was 89 (6.1) Number (%) of subjects, the “Any SAE” value [2, 8] was 483 (33.2) Number (%) of subjects and the “hazard ratio, primary end point (≥50% sustained decline in eGFR, ESRD, and CV or renal death)” value ([3]; dapagliflozin vs placebo, 95% CI 0.51 to 0.72, P<0.0001) was 0.61. For the same molecule, the “effect on death from any cause” value [3, 9] was “superior”, the “effect on renal-only secondary endpoint (composite of ≥50% sustained decline in eGFR, ESRD & renal death; renal composite without CV death)” value [3, 9] was “superior” and the “effect on secondary endpoint composite of CV death and hospitalisation for HF” value [3, 9] was “superior”. The “effect on time to first, second, or third hospitalisation for HF (exploratory endpoints)” value [3, 9] was “superior”, the “effect on death from any cause” value [3, 10] was “superior to placebo” and the “effect on renal-only secondary endpoint (composite of ≥50% sustained decline in eGFR, ESRD & renal death; renal composite without CV death)” value [3, 10] was “significant treatment effect”. For the same molecule, the “effect on secondary endpoint composite of CV death and hospitalisation for HF” value [3, 10] was “Statistically significant reduction”, the “effect on composite of ≥50% sustained eGFR decline, ESRD, and renal or CV death (primary objective)” value ([3]; vs placebo, in words) was “clinically meaningful and statistically significant reduction” and the new-onset diabetes [4, 11] was 4.9%. The “new-onset diabetes (patients/group)” value [4, 11] was 64/1298, the “HR, new-onset diabetes” value ([4]; dapa vs placebo, 95% CI, 0.50-0.94, p=0.019, Cox) was 0.68 and the “reduction of new-onset diabetes” value ([4]; dapa vs placebo, DAPA-HF non-T2D patients) was 32%.

Reference: patent US12213988B2 (ASTRAZENECA AB, priority 2020, dated 2025)
